Molecular target: T1, SMARCA2 (Homo sapiens, UniProt P51531)
T1 construct: endogenous in cells; host or cells: HT1080 (CRISPR HiBiT knock-in clone, generated in house)
Assay: SMARCA2 HiBiT degradation assay (cellular)
Assay type: cell-based
Settings: table head names A549; for DC50: 6 h incubation, HiBiT-tagged SMARCA2, luminescence read-out, read-out: HiBit A549 SMARCA2 IP (nM) 6 h; for Emax: A549, 6 h incubation, Emax = amount of residual protein remaining in the cell following compound treatment

T1 sequence (P51531 whole entry): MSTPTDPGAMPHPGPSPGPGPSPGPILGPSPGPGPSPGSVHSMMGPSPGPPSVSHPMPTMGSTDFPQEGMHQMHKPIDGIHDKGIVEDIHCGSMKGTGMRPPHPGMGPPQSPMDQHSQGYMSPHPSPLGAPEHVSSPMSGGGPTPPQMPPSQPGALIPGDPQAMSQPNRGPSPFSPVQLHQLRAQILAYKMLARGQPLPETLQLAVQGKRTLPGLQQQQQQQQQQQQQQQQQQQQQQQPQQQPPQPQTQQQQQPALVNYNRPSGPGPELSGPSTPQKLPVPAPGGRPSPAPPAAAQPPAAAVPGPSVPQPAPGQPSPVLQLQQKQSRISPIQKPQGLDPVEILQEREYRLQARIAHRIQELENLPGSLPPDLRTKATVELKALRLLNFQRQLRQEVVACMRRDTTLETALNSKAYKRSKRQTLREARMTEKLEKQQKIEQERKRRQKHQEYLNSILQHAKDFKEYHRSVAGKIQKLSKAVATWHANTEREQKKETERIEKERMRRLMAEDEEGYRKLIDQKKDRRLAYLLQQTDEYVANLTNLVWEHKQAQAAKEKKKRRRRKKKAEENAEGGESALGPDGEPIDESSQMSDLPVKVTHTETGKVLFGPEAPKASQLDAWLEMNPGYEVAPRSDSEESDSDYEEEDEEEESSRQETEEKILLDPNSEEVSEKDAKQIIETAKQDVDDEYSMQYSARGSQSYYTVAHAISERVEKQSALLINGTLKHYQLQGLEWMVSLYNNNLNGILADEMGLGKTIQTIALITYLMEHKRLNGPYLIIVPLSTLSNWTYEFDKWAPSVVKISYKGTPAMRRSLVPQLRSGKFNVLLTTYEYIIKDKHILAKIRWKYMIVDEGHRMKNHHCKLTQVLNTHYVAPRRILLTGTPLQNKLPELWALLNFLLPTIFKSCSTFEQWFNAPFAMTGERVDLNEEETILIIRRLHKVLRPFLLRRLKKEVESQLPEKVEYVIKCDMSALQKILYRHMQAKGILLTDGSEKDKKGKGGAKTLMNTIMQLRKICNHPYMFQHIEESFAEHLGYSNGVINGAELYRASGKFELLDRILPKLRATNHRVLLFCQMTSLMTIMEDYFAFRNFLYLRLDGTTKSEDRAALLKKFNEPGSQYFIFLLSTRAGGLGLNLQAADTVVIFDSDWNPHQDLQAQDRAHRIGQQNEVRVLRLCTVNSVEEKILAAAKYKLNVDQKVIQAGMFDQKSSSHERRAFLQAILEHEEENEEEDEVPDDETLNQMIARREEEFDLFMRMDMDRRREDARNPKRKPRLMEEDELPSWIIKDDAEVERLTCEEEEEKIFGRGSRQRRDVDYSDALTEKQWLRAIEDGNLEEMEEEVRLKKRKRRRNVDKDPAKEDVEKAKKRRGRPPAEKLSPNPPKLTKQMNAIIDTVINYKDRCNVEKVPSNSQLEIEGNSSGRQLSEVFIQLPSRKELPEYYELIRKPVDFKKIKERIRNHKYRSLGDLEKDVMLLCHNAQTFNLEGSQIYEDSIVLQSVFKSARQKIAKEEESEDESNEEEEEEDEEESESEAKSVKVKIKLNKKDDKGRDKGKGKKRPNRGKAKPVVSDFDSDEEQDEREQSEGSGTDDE

Row | Structure (SMILES) | DC50 [nM] | Emax [%]
1 | Nc1nnc(-c2ccccc2O)cc1OC1CCCN(c2ccc(OCCN3CCN(C(=O)CCCCCCCCn4cc(CNc5cccc6c5C(=O)N(C5CCC(=O)NC5=O)C6=O)nn4)CC3)cc2)C1 (centres unmarked) [Example 27, 4-[[1-[9-[4-[2-[4-[3-[3-amino-6-(2-hydroxyphenyl)pyridazin-4-yl]oxy-1-piperidyl]phenoxy]ethyl]piperazin-1-yl]-9-oxo-nonyl]triazol-4-yl]methylamino]-2-(2,6-dioxo-3-piperidyl)isoindoline-1,3-dione] | 333 | 57
2 | Nc1nnc(-c2ccccc2O)cc1OC1CCCN(c2ccc(N3CCN(C(=O)CCCCCCCCCn4cc(CNc5cccc6c5C(=O)N(C5CCC(=O)NC5=O)C6=O)nn4)CC3)cc2)C1 (centres unmarked) [Example 28, 4-[[1-[10-[4-[4-[3-[3-amino-6-(2-hydroxyphenyl)pyridazin-4-yl]oxy-1-piperidyl]phenyl]piperazin-1-yl]-10-oxo-decyl]triazol-4-yl]methylamino]-2-(2,6-dioxo-3-piperidyl)isoindoline-1,3-dione] | 91 | 48
3 | Nc1nnc(-c2ccccc2O)cc1N1CC2CCC(C1)N2c1cccc(CN2CCN(CCCOC3CCN(c4ccc5c(c4)C(=O)N(C4CCC(=O)NC4=O)C5=O)CC3)CC2)c1 (racemic) [Example 56, rac-5-[4-[3-[4-[[3-[3-[3-Amino-6-(2-hydroxyphenyl)pyridazin-4-yl]-3,8-diazabicyclo[3.2.1]octan-8-yl]phenyl]methyl]piperazin-1-yl]propoxy]-1-piperidyl]-2-(2,6-dioxo-3-piperidyl)isoindoline-1,3-dione] | 10 | 36
4 | Nc1nnc(-c2ccccc2O)cc1N1CC2CCC(C1)N2c1cccc(CN2CCN(CCOC3CCN(c4ccc5c(c4)C(=O)N(C4CCC(=O)NC4=O)C5=O)CC3)CC2)c1 (racemic) [Example 55, rac-5-[4-[2-[4-[[3-[3-[3-amino-6-(2-hydroxyphenyl)pyridazin-4-yl]-3,8-diazabicyclo[3.2.1]octan-8-yl]phenyl]methyl]piperazin-1-yl]ethoxy]-1-piperidyl]-2-(2,6-dioxo-3-piperidyl)isoindoline-1,3-dione] | 19 | 35
5 | Nc1nnc(-c2ccccc2O)cc1N1CC2CCC(C1)N2c1cccc(OCCN2CCN(C(=O)CNC(=O)C3CCN(c4ccc5c(c4)C(=O)N(C4CCC(=O)NC4=O)C5=O)CC3)CC2)c1 (racemic) [Example 141, rac-N-[2-[4-[2-[3-[3-[3-amino-6-(2-hydroxyphenyl)pyridazin-4-yl]-3,8-diazabicyclo[3.2.1]octan-8-yl]phenoxy]ethyl]piperazin-1-yl]-2-oxo-ethyl]-1-[2-(2,6-dioxo-3-piperidyl)-1,3-dioxo-isoindolin-5-yl]piperidine-4-carboxamide] | 9 | 19
6 | Nc1nnc(-c2ccccc2O)cc1N1CC2CCC(C1)N2c1cccc(CN2CCN(C(=O)CN3CCN(c4ccc(OC5CCC(=O)NC5=O)cc4)CC3)CC2)c1 (racemic) [Example 195, rac-3-[4-[4-[2-[4-[[3-[3-[3-Amino-6-(2-hydroxyphenyl)pyridazin-4-yl]-3,8-diazabicyclo[3.2.1]octan-8-yl]phenyl]methyl]piperazin-1-yl]-2-oxo-ethyl]piperazin-1-yl]phenoxy]piperidine-2,6-dione] | 72 | 60
7 | Nc1nnc(-c2ccccc2O)cc1N1CC2CCC(C1)N2c1cccc(OCCN2CCN(C(=O)N3CCN(c4ccc5c(c4)C(=O)N(C4CCC(=O)NC4=O)C5=O)CC3)CC2)c1 (racemic) [Example 49, rac-5-[4-[4-[2-[3-[3-[3-amino-6-(2-hydroxyphenyl)pyridazin-4-yl]-3,8-diazabicyclo[3.2.1]octan-8-yl]phenoxy]ethyl]piperazine-1-carbonyl]piperazin-1-yl]-2-(2,6-dioxo-3-piperidyl)isoindoline-1,3-dione] | 4 | 39

Other lines, results leading:

Row | DC50 [nM] | Emax [%] | Structure (SMILES)
8 | 54 | 43 | Nc1nnc(-c2ccccc2O)cc1N1CCC(C(=O)N2CCC3(CC2)CN(C(=O)C2CCN(c4ccc5c(c4)C(=O)N(C4CCC(=O)NC4=O)C5=O)CC2)CCO3)(c2ccccc2)CC1 (centres unmarked) [Example 167, 5-(4-(9-(1-(3-amino-6-(2-hydroxyphenyl)pyridazin-4-yl)-4-phenylpiperidine-4-carbonyl)-1-oxa-4,9-diazaspiro[5.5]undecane-4-carbonyl)piperidin-1-yl)-2-(2,6-dioxopiperidin-3-yl)isoindoline-1,3-dione]
9 | 17 | 26 | Nc1nnc(-c2ccccc2O)cc1N1CCN(c2cccc(OCCN3CCN(C(=O)C4CCN(c5ccc6c(c5)C(=O)N(C5CCC(=O)NC5=O)C6=O)CC4)CC3)c2)C2(CC2)C1 (centres unmarked) [Example 84, 5-(4-(4-(2-(3-(7-(3-amino-6-(2-hydroxyphenyl)pyridazin-4-yl)-4,7-diazaspiro[2.5]octan-4-yl)phenoxy)ethyl)piperazine-1-carbonyl)piperidin-1-yl)-2-(2,6-dioxopiperidin-3-yl)isoindoline-1,3-dione]
10 | 30 | 37 | Nc1nnc(-c2ccccc2O)cc1N1CCC(C(=O)N2CC3(CCN(CCC4CCN(c5ccc6c(c5)C(=O)N(C5CCC(=O)NC5=O)C6=O)CC4)C3)C2)(c2ccccc2)CC1 (centres unmarked) [Example 191, 5-(4-(2-(2-(1-(3-amino-6-(2-hydroxyphenyl)pyridazin-4-yl)-4-phenylpiperidine-4-carbonyl)-2,6-diazaspiro[3.4]octan-6-yl)ethyl)piperidin-1-yl)-2-(2,6-dioxopiperidin-3-yl)isoindoline-1,3-dione]
11 | 30 | 42 | Nc1nnc(-c2ccccc2O)cc1N1CC(Oc2ccc(C(=O)N3CCN(C(=O)C4CCN(c5ccc6c(c5)C(=O)N(C5CCC(=O)NC5=O)C6=O)CC4)CC3)c(Cl)c2)C1 (racemic) [Example 125, rac-5-[4-[4-[4-[1-[3-amino-6-(2-hydroxyphenyl)pyridazin-4-yl]azetidin-3-yl]oxy-2-chloro-benzoyl]piperazine-1-carbonyl]-1-piperidyl]-2-(2,6-dioxo-3-piperidyl)isoindoline-1,3-dione]
12 | 37 | 54 | Nc1nnc(-c2ccccc2O)cc1N1CC(Oc2ccc(CN3CCN(C(=O)CCCCCCNc4cccc5c4C(=O)N(C4CCC(=O)NC4=O)C5=O)CC3)cc2)C1 (centres unmarked) [Example 67, 4-[[7-[4-[[4-[1-[3-amino-6-(2-hydroxyphenyl)pyridazin-4-yl]azetidin-3-yl]oxyphenyl]methyl]piperazin-1-yl]-7-oxo-heptyl]amino]-2-(2,6-dioxo-3-piperidyl)isoindoline-1,3-dione]
13 | 12 | 43 | Nc1nnc(-c2ccccc2O)cc1N1CCN(c2cccc(CN3CCN(C(=O)CC4CCN(c5ccc6c(c5)C(=O)N(C5CCC(=O)NC5=O)C6=O)CC4)CC3)c2)C2(CC2)C1 (centres unmarked) [Example 130, 5-(4-(2-(4-(3-(7-(3-amino-6-(2-hydroxyphenyl)pyridazin-4-yl)-4,7-diazaspiro[2.5]octan-4-yl)benzyl)piperazin-1-yl)-2-oxoethyl)piperidin-1-yl)-2-(2,6-dioxopiperidin-3-yl)isoindoline-1,3-dione]

Reference: US20230024096A1, “BIFUNCTIONAL COMPOUNDS FOR THE TREATMENT OF CANCER” (Hoffmann-La Roche Inc., priority 2019, published 2023)
